Results from paper PMC8525843 (Investigative Ophthalmology & Visual Science, 2021).

Tests used:
rabbit eyes = settings: after administration; cited from earlier work
[1] = tested on: hypertonic saline-induced ocular hypertensive NZW rabbits; assay: IOP-lowering effect in hypertonic saline-induced ocular hypertensive NZW rabbits; format: in vivo, rabbit; settings: 0.02%; at 1.5 hours; vs saline
patients = settings: clinical data; cited from earlier work

## O=S(=O)(c1cccc2c(Cl)cccc12)N1CCCNCC1 [ML-9]
Rabbit eyes
  IOP of rabbit eyes: decreased in a dose-dependent manner

## Cc1ccc(C(=O)OCc2ccc([C@@H](CN)C(=O)Nc3ccc4cnccc4c3)cc2)c(C)c1 [AR-13324, netarsudil]
[1]
  Emax of IOP reduction: 12.1 ± 0.9 mm Hg

## C[C@H]1CNCCCN1S(=O)(=O)c1cccc2cncc(F)c12 [ripasudil, Ripasudil]
patients
  time for conjunctival hyperemia to resolve spontaneously: ≤ 4 h
